Columns and labels:
[1] = test system: Tyrosine-protein kinase ABL1 (Homo sapiens), P00519 [F317I]; conditions: Compound concentration 1000.0 nM
[2] = molecular target: Atypical kinase COQ8A, mitochondrial (Homo sapiens) (UniProt Q8NI60); conditions: Compound concentration 1000.0 nM
[3] = molecular target: RAC-beta serine/threonine-protein kinase (Homo sapiens) (UniProt P31751); conditions: Compound concentration 1000.0 nM
[4] = molecular target: ALK tyrosine kinase receptor (Homo sapiens) (UniProt Q9UM73); conditions: Compound concentration 1000.0 nM
[5] = molecular target: Ankyrin repeat and protein kinase domain-containing protein 1 (Homo sapiens) (UniProt Q8NFD2); conditions: Compound concentration 1000.0 nM
[6] = molecular target: Tyrosine-protein kinase receptor UFO (Homo sapiens) (UniProt P30530); conditions: Compound concentration 1000.0 nM
[7] = molecular target: Bone morphogenetic protein receptor type-1B (Homo sapiens) (UniProt O00238); conditions: Compound concentration 1000.0 nM
Sequence of Bone morphogenetic protein receptor type-1B (Homo sapiens) (O00238 whole entry): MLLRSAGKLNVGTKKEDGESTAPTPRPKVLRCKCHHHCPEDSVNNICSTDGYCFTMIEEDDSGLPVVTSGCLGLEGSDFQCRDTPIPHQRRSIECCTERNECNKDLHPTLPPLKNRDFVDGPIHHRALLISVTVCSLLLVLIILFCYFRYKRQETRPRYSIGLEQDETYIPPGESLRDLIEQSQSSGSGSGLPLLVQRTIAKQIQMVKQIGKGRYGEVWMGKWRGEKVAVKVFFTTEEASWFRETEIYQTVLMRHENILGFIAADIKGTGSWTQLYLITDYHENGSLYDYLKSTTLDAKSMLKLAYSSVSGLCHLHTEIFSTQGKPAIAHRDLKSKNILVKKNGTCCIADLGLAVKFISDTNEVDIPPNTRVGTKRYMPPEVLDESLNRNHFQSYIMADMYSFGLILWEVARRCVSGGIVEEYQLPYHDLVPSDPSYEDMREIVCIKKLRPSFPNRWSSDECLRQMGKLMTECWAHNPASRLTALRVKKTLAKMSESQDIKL

[8] = molecular target: Cyclin-dependent kinase 4 (Homo sapiens) (UniProt P11802); conditions: Compound concentration 1000.0 nM
[9] = molecular target: Serine/threonine-protein kinase Chk2 (Homo sapiens) (UniProt O96017); conditions: Compound concentration 1000.0 nM
[10] = molecular target: Casein kinase I isoform delta (Homo sapiens) (UniProt P48730); conditions: Compound concentration 1000.0 nM
[11] = molecular target: Casein kinase I isoform epsilon (Homo sapiens) (UniProt P49674); conditions: Compound concentration 1000.0 nM
[12] = molecular target: Ephrin type-A receptor 7 (Homo sapiens) (UniProt Q15375); conditions: Compound concentration 1000.0 nM
[13] = molecular target: Focal adhesion kinase 1 (Homo sapiens) (UniProt Q05397); conditions: Compound concentration 1000.0 nM
[14] = test system: Receptor-type tyrosine-protein kinase FLT3 (Homo sapiens), P36888 [R834Q]; conditions: Compound concentration 1000.0 nM
[15] = molecular target: Homeodomain-interacting protein kinase 3 (Homo sapiens) (UniProt Q9H422); conditions: Compound concentration 1000.0 nM
[16] = molecular target: Insulin receptor (Homo sapiens) (UniProt P06213); conditions: Compound concentration 1000.0 nM
[17] = molecular target: Tyrosine-protein kinase JAK1 (Homo sapiens) (UniProt P23458); conditions: Compound concentration 1000.0 nM
[18] = test system: Mast/stem cell growth factor receptor Kit (Homo sapiens), P10721 [V559D]; conditions: Compound concentration 1000.0 nM
[19] = test system: Mast/stem cell growth factor receptor Kit (Homo sapiens), P10721 [V559D,V654A]; conditions: Compound concentration 1000.0 nM
[20] = molecular target: Mast/stem cell growth factor receptor Kit (Homo sapiens) (UniProt P10721); conditions: Compound concentration 1000.0 nM
[21] = molecular target: Maternal embryonic leucine zipper kinase (Homo sapiens) (UniProt Q14680); conditions: Compound concentration 1000.0 nM
[22] = molecular target: MAP kinase-interacting serine/threonine-protein kinase 2 (Homo sapiens) (UniProt Q9HBH9); conditions: Compound concentration 1000.0 nM
[23] = molecular target: Mitogen-activated protein kinase kinase kinase 11 (Homo sapiens) (UniProt Q16584); conditions: Compound concentration 1000.0 nM
[24] = molecular target: Serine/threonine-protein kinase MRCK alpha (Homo sapiens) (UniProt Q5VT25); conditions: Compound concentration 1000.0 nM
[25] = molecular target: Serine/threonine-protein kinase Nek6 (Homo sapiens) (UniProt Q9HC98); conditions: Compound concentration 1000.0 nM
Sequence of Serine/threonine-protein kinase Nek6 (Homo sapiens) (Q9HC98 whole entry, canonical isoform): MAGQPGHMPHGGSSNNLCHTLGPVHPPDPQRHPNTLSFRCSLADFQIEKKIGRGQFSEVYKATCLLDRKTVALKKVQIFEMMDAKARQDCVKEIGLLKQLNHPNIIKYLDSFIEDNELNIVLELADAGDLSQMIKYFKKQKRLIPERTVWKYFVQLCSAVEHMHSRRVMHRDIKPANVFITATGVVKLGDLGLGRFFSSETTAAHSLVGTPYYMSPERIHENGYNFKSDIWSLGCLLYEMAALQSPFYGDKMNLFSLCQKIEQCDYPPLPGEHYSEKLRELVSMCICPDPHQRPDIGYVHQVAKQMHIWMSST

[26] = molecular target: Phosphorylase b kinase regulatory subunit alpha, liver isoform (Homo sapiens) (UniProt P46019); conditions: Compound concentration 1000.0 nM
[27] = molecular target: Phosphatidylinositol 4,5-bisphosphate 3-kinase catalytic subunit gamma isoform (Homo sapiens) (UniProt P48736); conditions: Compound concentration 1000.0 nM
[28] = molecular target: Phosphatidylinositol 5-phosphate 4-kinase type-2 gamma (Homo sapiens) (UniProt Q8TBX8); conditions: Compound concentration 1000.0 nM
[29] = molecular target: Serine/threonine-protein kinase PLK2 (Homo sapiens) (UniProt Q9NYY3); conditions: Compound concentration 1000.0 nM
[30] = molecular target: Protein-tyrosine kinase 2-beta (Homo sapiens) (UniProt Q14289); conditions: Compound concentration 1000.0 nM
[31] = test system: Proto-oncogene tyrosine-protein kinase receptor Ret (Homo sapiens), P07949 [V804M]; conditions: Compound concentration 1000.0 nM
[32] = molecular target: Ribosomal protein S6 kinase alpha-4 (Homo sapiens) (UniProt O75676); conditions: Compound concentration 1000.0 nM
[33] = molecular target: Serine/threonine-protein kinase 33 (Homo sapiens) (UniProt Q9BYT3); conditions: Compound concentration 1000.0 nM
[34] = molecular target: STE20/SPS1-related proline-alanine-rich protein kinase (Homo sapiens) (UniProt Q9UEW8); conditions: Compound concentration 1000.0 nM
[35] = molecular target: Tyrosine-protein kinase Tec (Homo sapiens) (UniProt P42680); conditions: Compound concentration 1000.0 nM
[36] = molecular target: TRAF2 and NCK-interacting protein kinase (Homo sapiens) (UniProt Q9UKE5); conditions: Compound concentration 1000.0 nM
[37] = molecular target: Serine/threonine-protein kinase ULK1 (Homo sapiens) (UniProt O75385); conditions: Compound concentration 1000.0 nM
[38] = molecular target: Serine/threonine-protein kinase ULK3 (Homo sapiens) (UniProt Q6PHR2); conditions: Compound concentration 1000.0 nM
[39] = molecular target: Serine/threonine-protein kinase WNK1 (Homo sapiens) (UniProt Q9H4A3); conditions: Compound concentration 1000.0 nM
Sequence of Serine/threonine-protein kinase WNK1 (Homo sapiens) (Q9H4A3 whole entry, looked up): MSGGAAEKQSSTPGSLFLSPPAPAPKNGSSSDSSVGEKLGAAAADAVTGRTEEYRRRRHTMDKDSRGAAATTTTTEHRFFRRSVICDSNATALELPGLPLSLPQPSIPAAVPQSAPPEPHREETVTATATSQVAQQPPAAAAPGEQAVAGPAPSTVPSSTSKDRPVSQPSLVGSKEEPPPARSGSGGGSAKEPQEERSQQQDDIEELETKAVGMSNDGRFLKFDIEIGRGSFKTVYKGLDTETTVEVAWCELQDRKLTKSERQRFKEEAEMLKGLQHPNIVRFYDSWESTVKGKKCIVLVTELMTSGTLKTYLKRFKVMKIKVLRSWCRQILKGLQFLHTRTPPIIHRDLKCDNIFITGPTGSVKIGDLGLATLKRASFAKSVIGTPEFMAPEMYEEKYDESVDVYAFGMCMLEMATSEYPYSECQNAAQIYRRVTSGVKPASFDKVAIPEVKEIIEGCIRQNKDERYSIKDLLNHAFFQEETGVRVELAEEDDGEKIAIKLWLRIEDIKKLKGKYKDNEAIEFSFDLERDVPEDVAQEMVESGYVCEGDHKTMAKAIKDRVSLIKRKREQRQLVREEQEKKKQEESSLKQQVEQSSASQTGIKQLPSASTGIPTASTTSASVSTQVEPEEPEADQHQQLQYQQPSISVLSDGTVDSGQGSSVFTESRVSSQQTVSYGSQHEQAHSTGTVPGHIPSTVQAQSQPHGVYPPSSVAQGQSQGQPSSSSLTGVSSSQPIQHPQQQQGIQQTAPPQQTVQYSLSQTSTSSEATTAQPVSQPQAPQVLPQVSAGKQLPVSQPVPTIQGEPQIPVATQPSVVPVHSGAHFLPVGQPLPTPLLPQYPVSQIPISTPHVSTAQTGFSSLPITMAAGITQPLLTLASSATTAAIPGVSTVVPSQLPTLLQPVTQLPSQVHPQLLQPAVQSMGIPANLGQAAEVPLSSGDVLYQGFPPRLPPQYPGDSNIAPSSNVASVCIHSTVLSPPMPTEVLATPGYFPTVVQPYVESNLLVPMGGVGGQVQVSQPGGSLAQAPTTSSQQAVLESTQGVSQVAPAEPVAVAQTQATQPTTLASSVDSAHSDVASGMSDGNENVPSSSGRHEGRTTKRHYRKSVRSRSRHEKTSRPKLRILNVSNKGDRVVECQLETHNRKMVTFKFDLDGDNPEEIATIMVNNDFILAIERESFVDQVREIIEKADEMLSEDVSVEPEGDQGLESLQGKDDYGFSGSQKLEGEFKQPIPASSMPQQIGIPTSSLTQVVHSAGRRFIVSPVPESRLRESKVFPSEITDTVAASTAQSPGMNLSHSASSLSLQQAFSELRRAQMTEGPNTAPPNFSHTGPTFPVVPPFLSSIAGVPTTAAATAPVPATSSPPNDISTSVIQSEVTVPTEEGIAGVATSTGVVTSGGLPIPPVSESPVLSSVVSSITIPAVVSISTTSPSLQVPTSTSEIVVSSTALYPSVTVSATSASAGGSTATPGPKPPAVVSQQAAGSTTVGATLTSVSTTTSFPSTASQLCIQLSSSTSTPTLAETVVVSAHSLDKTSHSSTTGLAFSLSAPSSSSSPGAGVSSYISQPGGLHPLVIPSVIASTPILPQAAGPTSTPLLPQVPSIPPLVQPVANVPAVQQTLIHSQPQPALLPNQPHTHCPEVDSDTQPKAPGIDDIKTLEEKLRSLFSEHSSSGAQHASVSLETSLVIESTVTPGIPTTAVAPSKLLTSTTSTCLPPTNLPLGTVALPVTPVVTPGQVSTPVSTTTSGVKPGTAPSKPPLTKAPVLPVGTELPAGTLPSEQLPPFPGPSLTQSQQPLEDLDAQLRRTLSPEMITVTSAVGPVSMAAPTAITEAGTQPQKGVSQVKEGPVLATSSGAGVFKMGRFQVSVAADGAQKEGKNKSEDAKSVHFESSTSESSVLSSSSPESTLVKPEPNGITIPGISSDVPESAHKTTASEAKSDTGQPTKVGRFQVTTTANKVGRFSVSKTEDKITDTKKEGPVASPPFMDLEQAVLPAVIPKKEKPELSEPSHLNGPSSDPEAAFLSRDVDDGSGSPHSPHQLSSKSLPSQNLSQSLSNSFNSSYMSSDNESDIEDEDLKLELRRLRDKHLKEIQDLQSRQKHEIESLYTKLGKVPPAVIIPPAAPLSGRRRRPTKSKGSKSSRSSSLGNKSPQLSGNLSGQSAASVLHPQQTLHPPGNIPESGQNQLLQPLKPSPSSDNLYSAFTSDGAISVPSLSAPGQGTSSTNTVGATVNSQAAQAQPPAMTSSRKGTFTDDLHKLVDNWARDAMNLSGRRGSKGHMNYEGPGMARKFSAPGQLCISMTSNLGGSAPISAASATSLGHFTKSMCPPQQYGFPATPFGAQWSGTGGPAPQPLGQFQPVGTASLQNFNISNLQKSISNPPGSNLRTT

[40] = molecular target: Serine/threonine-protein kinase 32B (Homo sapiens) (UniProt Q9NY57); conditions: Compound concentration 1000.0 nM
[41] = molecular target: 5-hydroxytryptamine receptor 1A (Homo sapiens) (UniProt P08908); conditions: Compound concentration 10.0 uM
[42] = molecular target: GABA-A receptor; anion channel (Rattus norvegicus) (UniProt O09028+P15431+P18506+P18508+P19969+P20236+P23574+P23576+P28471+P28473+P30191+P62813+P63079+P63138+Q91ZM7+Q9ES14); conditions: Compound concentration 10.0 uM
[43] = molecular target: Sigma intracellular receptor 2 (Homo sapiens) (UniProt Q5BJF2); conditions: Compound concentration 10.0 uM
Sequence of Sigma intracellular receptor 2 (Homo sapiens) (Q5BJF2 whole entry): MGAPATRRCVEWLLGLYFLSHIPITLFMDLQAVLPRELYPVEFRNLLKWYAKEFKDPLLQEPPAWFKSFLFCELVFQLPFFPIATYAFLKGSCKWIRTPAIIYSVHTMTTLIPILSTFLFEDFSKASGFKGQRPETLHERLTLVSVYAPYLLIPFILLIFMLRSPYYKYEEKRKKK

Sequence of Tyrosine-protein kinase ABL1 (Homo sapiens), P00519 [F317I] (P00519 whole entry F317I): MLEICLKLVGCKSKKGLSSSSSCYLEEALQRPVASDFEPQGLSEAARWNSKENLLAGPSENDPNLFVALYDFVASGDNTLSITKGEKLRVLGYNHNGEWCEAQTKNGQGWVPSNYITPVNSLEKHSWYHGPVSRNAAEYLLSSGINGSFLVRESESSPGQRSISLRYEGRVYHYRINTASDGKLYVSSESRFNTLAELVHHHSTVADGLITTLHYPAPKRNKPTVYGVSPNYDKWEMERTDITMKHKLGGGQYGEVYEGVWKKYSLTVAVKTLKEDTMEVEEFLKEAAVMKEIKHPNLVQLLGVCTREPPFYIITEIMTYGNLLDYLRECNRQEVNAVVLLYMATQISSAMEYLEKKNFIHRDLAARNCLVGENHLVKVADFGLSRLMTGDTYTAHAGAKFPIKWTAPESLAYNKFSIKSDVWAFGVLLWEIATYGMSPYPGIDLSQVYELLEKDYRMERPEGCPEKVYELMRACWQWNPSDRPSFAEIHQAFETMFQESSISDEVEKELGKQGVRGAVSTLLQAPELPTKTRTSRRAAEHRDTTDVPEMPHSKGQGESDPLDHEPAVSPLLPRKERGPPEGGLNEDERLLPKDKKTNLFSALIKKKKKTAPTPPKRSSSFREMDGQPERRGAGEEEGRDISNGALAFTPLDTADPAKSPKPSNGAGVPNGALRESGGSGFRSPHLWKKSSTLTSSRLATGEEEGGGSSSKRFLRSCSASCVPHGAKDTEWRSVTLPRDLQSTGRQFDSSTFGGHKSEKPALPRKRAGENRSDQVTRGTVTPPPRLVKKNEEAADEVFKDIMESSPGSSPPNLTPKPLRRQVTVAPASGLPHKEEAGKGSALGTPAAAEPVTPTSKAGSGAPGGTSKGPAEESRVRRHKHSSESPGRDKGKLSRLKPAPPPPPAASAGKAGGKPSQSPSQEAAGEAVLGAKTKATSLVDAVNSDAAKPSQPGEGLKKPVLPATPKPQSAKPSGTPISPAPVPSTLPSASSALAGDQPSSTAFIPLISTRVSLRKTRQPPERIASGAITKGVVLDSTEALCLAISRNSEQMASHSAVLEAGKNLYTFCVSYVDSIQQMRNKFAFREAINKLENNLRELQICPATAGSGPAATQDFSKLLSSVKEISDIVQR
Sequence of RAC-beta serine/threonine-protein kinase (Homo sapiens) (P31751 whole entry): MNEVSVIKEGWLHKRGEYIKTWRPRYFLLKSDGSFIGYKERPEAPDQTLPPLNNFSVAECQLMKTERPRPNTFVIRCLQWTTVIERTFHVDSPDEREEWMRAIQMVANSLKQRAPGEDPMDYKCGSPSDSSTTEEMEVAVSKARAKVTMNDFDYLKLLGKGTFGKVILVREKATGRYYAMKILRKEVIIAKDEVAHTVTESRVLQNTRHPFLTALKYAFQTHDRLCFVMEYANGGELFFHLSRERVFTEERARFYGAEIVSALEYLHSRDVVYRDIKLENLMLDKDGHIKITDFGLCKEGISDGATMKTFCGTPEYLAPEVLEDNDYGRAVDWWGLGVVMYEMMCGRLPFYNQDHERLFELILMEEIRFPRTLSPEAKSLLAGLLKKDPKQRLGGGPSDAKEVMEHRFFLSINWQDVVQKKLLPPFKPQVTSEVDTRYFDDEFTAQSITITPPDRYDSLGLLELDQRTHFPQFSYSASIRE

FC(F)(F)c1ccc2c(c1)nc(-c1cccnc1)n2C1CC1 [MSD-CYP11B2-Negative-control]
inactive: residual activity [1] 100% | residual activity [2] 100% | residual activity [3] 100% | residual activity [4] 100% | residual activity [5] 100% | residual activity [6] 100% | residual activity [7] 83% | residual activity [8] 100% | residual activity [9] 100% | residual activity [10] 100% | residual activity [11] 100% | residual activity [12] 100% | residual activity [13] 100% | residual activity [14] 100% | residual activity [15] 100% | residual activity [16] 100% | residual activity [17] 85% | residual activity [18] 100% | residual activity [19] 100% | residual activity [20] 85% | residual activity [21] 94% | residual activity [22] 100% | residual activity [23] 100% | residual activity [24] 100% | residual activity [25] 100% | residual activity [26] 100% | residual activity [27] 92% | residual activity [28] 100% | residual activity [29] 94% | residual activity [30] 100% | residual activity [31] 100% | residual activity [32] 99% | residual activity [33] 100% | residual activity [34] 100% | residual activity [35] 100% | residual activity [36] 100% | residual activity [37] 100% | residual activity [38] 100% | residual activity [39] 100% | residual activity [40] 100% | inhibition [41] 0.44% | inhibition [42] 2.02% | inhibition [43] 26.5%

CC(C)(O)c1cncc(-c2nc3ccc(F)cc3n2C2CC2)c1 [MSD-CYP11B2]
inactive: residual activity [1] 100% | residual activity [2] 100% | residual activity [3] 84% | residual activity [4] 77% | residual activity [5] 100% | residual activity [6] 100% | residual activity [7] 96% | residual activity [8] 100% | residual activity [9] 100% | residual activity [10] 100% | residual activity [11] 100% | residual activity [12] 100% | residual activity [13] 100% | residual activity [14] 100% | residual activity [15] 93% | residual activity [16] 100% | residual activity [17] 80% | residual activity [18] 100% | residual activity [19] 87% | residual activity [20] 86% | residual activity [21] 100% | residual activity [22] 100% | residual activity [23] 100% | residual activity [24] 100% | residual activity [25] 100% | residual activity [26] 100% | residual activity [27] 77% | residual activity [28] 100% | residual activity [29] 100% | residual activity [30] 100% | residual activity [31] 100% | residual activity [32] 91% | residual activity [33] 100% | residual activity [34] 100% | residual activity [35] 100% | residual activity [36] 100% | residual activity [37] 100% | residual activity [38] 95% | residual activity [39] 100% | residual activity [40] 97% | inhibition [41] 1.22% | inhibition [42] 16.6% | inhibition [43] 22.7%

Reference: ChEMBL document CHEMBL4507294, “Data for DCP probe MSD-CYP11B2” (2021)
